# Measured values: patent US5326788A, “Biological fluid purification system” (priority 1992, dated 1994)
# Values joined by “and” are separate entries in the source; they are usually repeats but may differ in a detail not shown here. Equal values may be shown once.
# How the values were obtained:
# [1] = system: HIV; test: Inactivation of HIV from blood of sero-positive patient, reverse transcriptase activity after culture with H9 cells; assay type: cell-based, Human Immunodeficiency Virus (HIV)
# Protocol: In order to show the effectiveness of the compounds of the present invention in the inactivation of HIV, blood was obtained from an HIV sero-positive patient and treated with hypericin and pseudohypericin at various concentrations for 1 hour at 37° C. and incubated with uninfected H9 cells in culture. Thereafter, reverse transcriptase enzymatic activity was determined as disclosed in U.S. patent application Ser. Nos. 084,008 and 172,064 filed Aug. 10, 1987 and Mar. 23, 1988, respectively.
# In FIG. 1, open squares represent hypericin-treated and pluses represent pseudohypericin treated HIV. […] Inactivation of the reverse transcriptase activity of the virions was not a result of a direct inhibition of reverse transcriptase activity per se, as incubation of either compound directly with purified reverse transcriptase from either avian myeloblastosis virus or murine leukemia virus had no effect on enzyme activity. Furthermore, aliquots of HIV derived from these H9 cell cultures lost the ability to replicate in culture when exposed to as little as 0.77 micrograms/ml of hypericin.
# [2] = Effect of hypericin on hematologic parameters and blood chemistries of mouse blood; set-up: Hematocrit: unit not given here; conditions: for BUN / Hb / Hematocrit / WBC / albumin / alk. phos. / calcium / chloride / cholesterol / creatinine / globulins / glucose / iron / phosphorous / retics / sodium / total bilirubin / total protein / triglycerides / uric acid: mouse blood
# Protocol: Analogous experiments to assess the effect of hypericin on routine clinical chemistries and hematologic parameters were determined in a commercial laboratory on mouse blood using higher concentrations of hypericin. Eight blood samples drawn in parallel were treated with hypericin ranging in concentration from 2.5 micrograms/ml to 200 micrograms/ml of whole blood.
smiles,measurement,setting,value
Cc1cc(O)c2c(=O)c3c(O)cc(O)c4c5c(O)cc(O)c6c(=O)c7c(O)cc(C)c8c1c2c(c34)c(c78)c65 [hypericin],concentration giving complete inactivation of HIV (no reverse transcriptase detected),"[1]; 1 hour at 37° C., H9 cells",2.5 micrograms/ml
same,IC100,"[1]; Human immunodeficiency virus 1, H9, 1 h, read-out: concentration giving complete inactivation of HIV (no reverse transcriptase detected), 1 hour at 37° C., H9 cells",> 2.5 µg/mL
same,BUN,[2]; 2.5 μg hypericin,18 mg/dL and 17 mg/dL
same,Hb,[2]; 2.5 μg hypericin,"12.7 gm, dl"
same,Hematocrit,[2]; 2.5 μg hypericin,38.3 and 37.8
same,WBC,[2]; 2.5 μg hypericin,4.6 /cumm and 4.8 /cumm
same,albumin,[2]; 2.5 μg hypericin,3.4 g/dL and 2.6 g/dL
same,alk. phos.,[2]; 2.5 μg hypericin,140 IU/l and 121 IU/l
same,calcium,[2]; 2.5 μg hypericin,6.7 mg/dL and 5.4 mg/dL
same,chloride,[2]; 2.5 μg hypericin,113 meq/l and 102 meq/l
same,cholesterol,[2]; 2.5 μg hypericin,149 mg/dL and 143 mg/dL
same,creatinine,[2]; 2.5 μg hypericin,0.4 mg/dL
same,globulins,[2]; 2.5 μg hypericin,2.6 g/dL and 3.2 g/dL
same,glucose,[2]; 2.5 μg hypericin,113 mg/dL and 68 mg/dL
same,iron,[2]; 2.5 μg hypericin,219 mog/dl and 169 mog/dl
same,phosphorous,[2]; 2.5 μg hypericin,8.1 mg/dL and 7.2 mg/dL
same,retics,[2]; 2.5 μg hypericin,1.5% and 2.3%
same,sodium,[2]; 2.5 μg hypericin,150 meq/l and 138 meq/l
same,total bilirubin,[2]; 2.5 μg hypericin,0.8 mg/dL and 1.2 mg/dL
same,total protein,[2]; 2.5 μg hypericin,6.0 g/dL and 5.8 g/dL
same,triglycerides,[2]; 2.5 μg hypericin,80 mg/dL and 77 mg/dL
same,uric acid,[2]; 2.5 μg hypericin,2.6 mg/dL and 2.8 mg/dL
same,BUN,[2]; 5.0 μg hypericin,18 mg/dL
same,Hb,[2]; 5.0 μg hypericin,"12.9 gm, dl and 12.4 gm, dl"
same,Hematocrit,[2]; 5.0 μg hypericin,38.5
same,WBC,[2]; 5.0 μg hypericin,4.7 /cumm and 4.5 /cumm
same,albumin,[2]; 5.0 μg hypericin,3.5 g/dL
same,alk. phos.,[2]; 5.0 μg hypericin,140 IU/l
same,calcium,[2]; 5.0 μg hypericin,7.0 mg/dL
same,chloride,[2]; 5.0 μg hypericin,113 meq/l
same,cholesterol,[2]; 5.0 μg hypericin,156 mg/dL
same,creatinine,[2]; 5.0 μg hypericin,0.4 mg/dL
same,glucose,[2]; 5.0 μg hypericin,112 mg/dL
same,iron,[2]; 5.0 μg hypericin,220 mog/dl
same,phosphorous,[2]; 5.0 μg hypericin,8.1 mg/dL
same,retics,[2]; 5.0 μg hypericin,2.2% and 2.0%
same,sodium,[2]; 5.0 μg hypericin,150 meq/l
same,total bilirubin,[2]; 5.0 μg hypericin,0.8 mg/dL
same,triglycerides,[2]; 5.0 μg hypericin,85 mg/dL
same,uric acid,[2]; 5.0 μg hypericin,2.7 mg/dL
same,BUN,[2]; 10 μg hypericin,18 mg/dL
same,Hb,[2]; 10 μg hypericin,"12.8 gm, dl and 12.3 gm, dl"
same,Hematocrit,[2]; 10 μg hypericin,37.8
same,WBC,[2]; 10 μg hypericin,4.5 /cumm
same,albumin,[2]; 10 μg hypericin,3.5 g/dL
same,alk. phos.,[2]; 10 μg hypericin,138 IU/l and 140 IU/l
same,calcium,[2]; 10 μg hypericin,6.7 mg/dL
same,chloride,[2]; 10 μg hypericin,112 meq/l
same,cholesterol,[2]; 10 μg hypericin,155 mg/dL
same,creatinine,[2]; 10 μg hypericin,0.3 mg/dL
same,globulins,[2]; 10 μg hypericin,3.0 g/dL
same,glucose,[2]; 10 μg hypericin,113 mg/dL
same,iron,[2]; 10 μg hypericin,218 mog/dl and 220 mog/dl
same,phosphorous,[2]; 10 μg hypericin,8.2 mg/dL and 8.1 mg/dL
same,retics,[2]; 10 μg hypericin,1.7% and 0.5%
same,sodium,[2]; 10 μg hypericin,148 meq/l
same,total bilirubin,[2]; 10 μg hypericin,0.8 mg/dL and 0.9 mg/dL
same,total protein,[2]; 10 μg hypericin,6.5 g/dL
same,triglycerides,[2]; 10 μg hypericin,67 mg/dL and 64 mg/dL
same,uric acid,[2]; 10 μg hypericin,2.9 mg/dL and 3.0 mg/dL
same,BUN,[2]; 25 μg hypericin,18 mg/dL
same,Hb,[2]; 25 μg hypericin,"12.8 gm, dl"
same,Hematocrit,[2]; 25 μg hypericin,37.7 and 37.9
same,WBC,[2]; 25 μg hypericin,4.7 /cumm
same,albumin,[2]; 25 μg hypericin,3.7 g/dL and 3.6 g/dL
same,alk. phos.,[2]; 25 μg hypericin,136 IU/l and 134 IU/l
same,calcium,[2]; 25 μg hypericin,6.7 mg/dL and 6.3 mg/dL
same,chloride,[2]; 25 μg hypericin,111 meq/l and 110 meq/l
same,cholesterol,[2]; 25 μg hypericin,166 mg/dL and 162 mg/dL
same,creatinine,[2]; 25 μg hypericin,0.3 mg/dL
same,globulins,[2]; 25 μg hypericin,3.1 g/dL and 3.3 g/dL
same,glucose,[2]; 25 μg hypericin,111 mg/dL and 110 mg/dL
same,iron,[2]; 25 μg hypericin,218 mog/dl and 219 mog/dl
same,phosphorous,[2]; 25 μg hypericin,8.2 mg/dL and 8.1 mg/dL
same,retics,[2]; 25 μg hypericin,0.8% and 0.3%
same,sodium,[2]; 25 μg hypericin,146 meq/l and 144 meq/l
same,total bilirubin,[2]; 25 μg hypericin,0.9 mg/dL
same,total protein,[2]; 25 μg hypericin,6.8 g/dL and 6.9 g/dL
same,triglycerides,[2]; 25 μg hypericin,80 mg/dL and 84 mg/dL
same,uric acid,[2]; 25 μg hypericin,3.9 mg/dL and 3.8 mg/dL
same,BUN,[2]; 50 μg hypericin,18 mg/dL
same,Hb,[2]; 50 μg hypericin,"12.8 gm, dl"
same,Hematocrit,[2]; 50 μg hypericin,38.1 and 38.0
same,WBC,[2]; 50 μg hypericin,4.8 /cumm
same,albumin,[2]; 50 μg hypericin,3.5 g/dL
same,alk. phos.,[2]; 50 μg hypericin,141 IU/l
same,calcium,[2]; 50 μg hypericin,6.6 mg/dL and 6.8 mg/dL
same,chloride,[2]; 50 μg hypericin,113 meq/l
same,cholesterol,[2]; 50 μg hypericin,152 mg/dL and 150 mg/dL
same,creatinine,[2]; 50 μg hypericin,0.4 mg/dL
same,globulins,[2]; 50 μg hypericin,3.0 g/dL
same,glucose,[2]; 50 μg hypericin,113 mg/dL and 114 mg/dL
same,iron,[2]; 50 μg hypericin,220 mog/dl and 221 mog/dl
same,phosphorous,[2]; 50 μg hypericin,8.3 mg/dL and 8.2 mg/dL
same,retics,[2]; 50 μg hypericin,1.4% and 2.5%
same,sodium,[2]; 50 μg hypericin,148 meq/l
same,total bilirubin,[2]; 50 μg hypericin,0.8 mg/dL and 0.9 mg/dL
same,total protein,[2]; 50 μg hypericin,6.5 g/dL
same,triglycerides,[2]; 50 μg hypericin,61 mg/dL and 62 mg/dL
same,uric acid,[2]; 50 μg hypericin,3.0 mg/dL and 2.8 mg/dL
same,BUN,[2]; 100 μg hypericin,18 mg/dL and 17 mg/dL
same,Hb,[2]; 100 μg hypericin,"12.8 gm, dl and 13.2 gm, dl"
same,Hematocrit,[2]; 100 μg hypericin,37.8 and 38.4
same,WBC,[2]; 100 μg hypericin,4.9 /cumm and 5.0 /cumm
same,albumin,[2]; 100 μg hypericin,3.5 g/dL and 3.4 g/dL
same,alk. phos.,[2]; 100 μg hypericin,140 IU/l and 138 IU/l
same,calcium,[2]; 100 μg hypericin,6.6 mg/dL
same,cholesterol,[2]; 100 μg hypericin,153 mg/dL and 151 mg/dL
same,creatinine,[2]; 100 μg hypericin,0.4 mg/dL
same,globulins,[2]; 100 μg hypericin,3.0 g/dL and 2.7 g/dL
same,iron,[2]; 100 μg hypericin,220 mog/dl and 216 mog/dl
same,phosphorous,[2]; 100 μg hypericin,8.2 mg/dL and 8.0 mg/dL
same,retics,[2]; 100 μg hypericin,0.8% and 0.7%
same,sodium,[2]; 100 μg hypericin,149 meq/l and 146 meq/l
same,total bilirubin,[2]; 100 μg hypericin,1.0 mg/dL
same,total protein,[2]; 100 μg hypericin,6.5 g/dL and 6.1 g/dL
same,triglycerides,[2]; 100 μg hypericin,92 mg/dL and 87 mg/dL
same,uric acid,[2]; 100 μg hypericin,3.2 mg/dL and 3.1 mg/dL
same,BUN,[2]; 200 μg hypericin,18 mg/dL
same,Hb,[2]; 200 μg hypericin,"12.6 gm, dl and 12.7 gm, dl"
same,Hematocrit,[2]; 200 μg hypericin,37.5 and 34.6
same,WBC,[2]; 200 μg hypericin,4.4 /cumm and 4.6 /cumm
same,albumin,[2]; 200 μg hypericin,3.5 g/dL
same,alk. phos.,[2]; 200 μg hypericin,139 IU/l and 140 IU/l
same,calcium,[2]; 200 μg hypericin,6.6 mg/dL
same,chloride,[2]; 200 μg hypericin,110 meq/l and 111 meq/l
same,cholesterol,[2]; 200 μg hypericin,155 mg/dL and 157 mg/dL
same,creatinine,[2]; 200 μg hypericin,0.4 mg/dL
same,globulins,[2]; 200 μg hypericin,3.3 g/dL and 2.9 g/dL
same,glucose,[2]; 200 μg hypericin,122 mg/dL and 111 mg/dL
same,iron,[2]; 200 μg hypericin,211 mog/dl and 215 mog/dl
same,phosphorous,[2]; 200 μg hypericin,7.9 mg/dL and 8.0 mg/dL
same,retics,[2]; 200 μg hypericin,2.8% and 0.6%
same,sodium,[2]; 200 μg hypericin,145 meq/l and 147 meq/l
same,total bilirubin,[2]; 200 μg hypericin,1.1 mg/dL
same,total protein,[2]; 200 μg hypericin,6.8 g/dL and 6.4 g/dL
same,triglycerides,[2]; 200 μg hypericin,92 mg/dL and 89 mg/dL
same,uric acid,[2]; 200 μg hypericin,3.8 mg/dL and 3.6 mg/dL
same,effect on clinical chemistries and hematological parameters (summary),[2]; up to 200 micrograms/ml,did not significantly affect
